Experimental data: ChEMBL document CHEMBL5365500, “Development and Antibacterial Properties of 4-[4-(Anilinomethyl)-3-phenylpyrazol-1-yl]benzoic Acid Derivatives as Fatty Acid Biosynthesis Inhibitors” (J Med Chem, 2023)
Converted amounts (≈) assume the structure as drawn.

What was measured:
Assay type in all cases: functional
Conditions in all cases: time 20-24 hrs
Staphylococcus aureus [1] = assay: Antimicrobial activity against antibiotic-resistant Staphylococcus aureus ATCC 33591 assessed as inhibition of visible growth measured after 20 to 24 hrs incubation by CLSI method
Staphylococcus aureus [2] = assay: Antimicrobial activity against antibiotic-resistant Staphylococcus aureus ATCC 700699 assessed as inhibition of visible growth measured after 20 to 24 hrs incubation by CLSI method
Staphylococcus aureus [3] = assay: Antimicrobial activity against antibiotic-resistant Staphylococcus aureus ATCC BAA-2312 assessed as inhibition of visible growth measured after 20 to 24 hrs incubation by CLSI method
Staphylococcus aureus [4] = assay: Antimicrobial activity against antibiotic-resistant Staphylococcus aureus ATCC 33592 assessed as inhibition of visible growth measured after 20 to 24 hrs incubation by CLSI method
Enterococcus faecalis [5] = assay: Antimicrobial activity against antibiotic-resistant Enterococcus faecalis ATCC 51299 assessed as inhibition of visible growth measured after 20 to 24 hrs incubation by CLSI method
[6] = tested on: Staphylococcus epidermidis; assay: Antimicrobial activity against antibiotic-resistant Staphylococcus epidermidis ATCC 700296 assessed as inhibition of visible growth measured after 20 to 24 hrs incubation by CLSI method
Staphylococcus aureus [7] = assay: Antimicrobial activity against Staphylococcus aureus ATCC 25923 assessed as inhibition of visible growth measured after 20 to 24 hrs incubation by CLSI method
Enterococcus faecalis [8] = assay: Antimicrobial activity against antibiotic-susceptible Enterococcus faecalis ATCC 29212 assessed as inhibition of visible growth measured after 20 to 24 hrs incubation by CLSI method
Bacillus subtilis = assay: Antimicrobial activity against antibiotic-resistant Bacillus subtilis ATCC 6623 assessed as inhibition of visible growth measured after 20 to 24 hrs incubation by CLSI method
Enterococcus faecium = assay: Antimicrobial activity against antibiotic-resistant Enterococcus faecium ATCC 700221 assessed as inhibition of visible growth measured after 20 to 24 hrs incubation by CLSI method

| SMILES | MIC (Staphylococcus aureus [1]) [µg/mL] | MIC (Staphylococcus aureus [2]) [µg/mL] | MIC (Staphylococcus aureus [3]) [µg/mL] | MIC (Staphylococcus aureus [4]) [µg/mL] | MIC (Enterococcus faecalis [5]) [µg/mL] | MIC [6] [µg/mL] | MIC (Staphylococcus aureus [7]) [µg/mL] | MIC (Enterococcus faecalis [8]) [µg/mL] | MIC (Bacillus subtilis) [µg/mL] | MIC (Enterococcus faecium) [µg/mL] |
| --- | --- | --- | --- | --- | --- | --- | --- | --- | --- | --- |
| O=C(O)c1ccc(-n2cc(CNc3ccc(F)c(F)c3)c(-c3cccc(F)c3)n2)cc1 | 16 (≈ 37.8 µM) | 16 (≈ 37.8 µM) | 16 (≈ 37.8 µM) | 16 (≈ 37.8 µM) | 32 (≈ 75.6 µM) | 32 (≈ 75.6 µM) | 16 (≈ 37.8 µM) | > 32 | 8 (≈ 18.9 µM) | 32 (≈ 75.6 µM) |
| O=C(O)c1ccc(-n2cc(CNc3cccc(F)c3)c(-c3ccc(F)cc3)n2)cc1 | 16 (≈ 39.5 µM) | 16 (≈ 39.5 µM) | 32 (≈ 78.9 µM) | 16 (≈ 39.5 µM) | > 32 | 32 (≈ 78.9 µM) | 16 (≈ 39.5 µM) | > 32 | 8 (≈ 19.7 µM) | > 32 |
| O=C(O)c1ccc(-n2cc(CNc3cc(F)cc(C(F)(F)F)c3)c(-c3ccc(F)cc3)n2)cc1 | 2 (≈ 4.22 µM) | 2 (≈ 4.22 µM) | 2 (≈ 4.22 µM) | 4 (≈ 8.45 µM) | 16 (≈ 33.8 µM) | 4 (≈ 8.45 µM) | 2 (≈ 4.22 µM) | 16 (≈ 33.8 µM) | 4 (≈ 8.45 µM) | 8 (≈ 16.9 µM) |
| O=C(O)c1ccc(-n2cc(CNc3ccc(Br)cc3)c(-c3cccc(F)c3)n2)cc1 | 4 (≈ 8.58 µM) | 16 (≈ 34.3 µM) | 8 (≈ 17.2 µM) | 16 (≈ 34.3 µM) | 32 (≈ 68.6 µM) | 16 (≈ 34.3 µM) | 4 (≈ 8.58 µM) | 32 (≈ 68.6 µM) | 4 (≈ 8.58 µM) | 16 (≈ 34.3 µM) |
| O=C(O)c1ccc(-n2cc(CNc3cc(Cl)cc(Cl)c3)c(-c3ccc(F)c(F)c3)n2)cc1 | 0.5 (≈ 1.05 µM) | 2 (≈ 4.22 µM) | 1 (≈ 2.11 µM) | 2 (≈ 4.22 µM) | 8 (≈ 16.9 µM) | 2 (≈ 4.22 µM) | 1 (≈ 2.11 µM) | 4 (≈ 8.43 µM) | 0.5 (≈ 1.05 µM) | 2 (≈ 4.22 µM) |
| NS(=O)(=O)c1ccc(NCc2cn(-c3ccc(C(=O)O)cc3)nc2-c2ccc(F)cc2)cc1 | > 32 | > 32 | > 32 | > 32 | > 32 | 16 (≈ 34.3 µM) | > 32 | > 32 | > 32 | > 32 |
| O=C(O)c1ccc(-n2cc(CNc3ccc(F)cc3)c(-c3ccc(F)c(F)c3)n2)cc1 | > 32 | > 32 | > 32 | > 32 | > 32 | > 32 | > 32 | > 32 | > 32 | > 32 |
| O=C(O)c1ccc(-n2cc(CNc3cccc(C(F)(F)F)c3)c(-c3ccc(F)cc3)n2)cc1 | 2 (≈ 4.39 µM) | 4 (≈ 8.78 µM) | 4 (≈ 8.78 µM) | 8 (≈ 17.6 µM) | 16 (≈ 35.1 µM) | 8 (≈ 17.6 µM) | 8 (≈ 17.6 µM) | 16 (≈ 35.1 µM) | 2 (≈ 4.39 µM) | 8 (≈ 17.6 µM) |
| O=C(O)c1ccc(-n2cc(CNc3cc(F)cc(C(F)(F)F)c3)c(-c3cccc(F)c3)n2)cc1 | 1 (≈ 2.11 µM) | 2 (≈ 4.22 µM) | 2 (≈ 4.22 µM) | 1 (≈ 2.11 µM) | 8 (≈ 16.9 µM) | 4 (≈ 8.45 µM) | 2 (≈ 4.22 µM) | 8 (≈ 16.9 µM) | 1 (≈ 2.11 µM) | 4 (≈ 8.45 µM) |
| O=C(O)c1ccc(-n2cc(CNc3cc(Cl)c(F)cc3F)c(-c3ccc(F)c(F)c3)n2)cc1 | > 32 | > 32 | > 32 | > 32 | > 32 | > 32 | > 32 | > 32 | > 32 | > 32 |
| O=C(O)c1ccc(-n2cc(CNc3ccc(Br)cc3)c(-c3ccc(F)cc3)n2)cc1 | 4 (≈ 8.58 µM) | 16 (≈ 34.3 µM) | 16 (≈ 34.3 µM) | > 32 | > 32 | > 32 | 8 (≈ 17.2 µM) | > 32 | 4 (≈ 8.58 µM) | > 32 |
| O=C(O)c1ccc(-n2cc(CNc3ccc(F)c(C(F)(F)F)c3)c(-c3ccc(F)cc3)n2)cc1 | 2 (≈ 4.22 µM) | 8 (≈ 16.9 µM) | 4 (≈ 8.45 µM) | 4 (≈ 8.45 µM) | 16 (≈ 33.8 µM) | 8 (≈ 16.9 µM) | 4 (≈ 8.45 µM) | 16 (≈ 33.8 µM) | 2 (≈ 4.22 µM) | 16 (≈ 33.8 µM) |
| Cc1cc(NCc2cn(-c3ccc(C(=O)O)cc3)nc2-c2ccc(F)cc2)ccc1F | 8 (≈ 19.1 µM) | 8 (≈ 19.1 µM) | 16 (≈ 38.1 µM) | 16 (≈ 38.1 µM) | > 32 | 32 (≈ 76.3 µM) | 16 (≈ 38.1 µM) | > 32 | 4 (≈ 9.54 µM) | > 32 |
| O=C(O)c1ccc(-n2cc(CNc3ccc(Cl)c(Cl)c3)c(-c3ccc(F)c(F)c3)n2)cc1 | 0.5 (≈ 1.05 µM) | 2 (≈ 4.22 µM) | 1 (≈ 2.11 µM) | 1 (≈ 2.11 µM) | 8 (≈ 16.9 µM) | 2 (≈ 4.22 µM) | 1 (≈ 2.11 µM) | 4 (≈ 8.43 µM) | 0.5 (≈ 1.05 µM) | 2 (≈ 4.22 µM) |
| O=C(O)c1ccc(-n2cc(CNc3ccc(Cl)cc3)c(-c3ccc(F)c(F)c3)n2)cc1 | > 32 | > 32 | > 32 | > 32 | > 32 | > 32 | > 32 | > 32 | 4 (≈ 9.09 µM) | > 32 |
| O=C(O)c1ccc(-n2cc(CNc3cccc(C(F)(F)F)c3)c(-c3ccc(F)c(F)c3)n2)cc1 | 1 (≈ 2.11 µM) | 8 (≈ 16.9 µM) | 2 (≈ 4.22 µM) | 4 (≈ 8.45 µM) | 8 (≈ 16.9 µM) | 8 (≈ 16.9 µM) | 4 (≈ 8.45 µM) | 8 (≈ 16.9 µM) | 1 (≈ 2.11 µM) | 4 (≈ 8.45 µM) |
| O=C(O)c1ccc(-n2cc(CNc3cccc(Br)c3)c(-c3ccc(F)cc3)n2)cc1 | 4 (≈ 8.58 µM) | 8 (≈ 17.2 µM) | 8 (≈ 17.2 µM) | 16 (≈ 34.3 µM) | 32 (≈ 68.6 µM) | 16 (≈ 34.3 µM) | 8 (≈ 17.2 µM) | 32 (≈ 68.6 µM) | 4 (≈ 8.58 µM) | 16 (≈ 34.3 µM) |
| O=C(O)c1ccc(-n2cc(CNc3ccc(Cl)c(Cl)c3)c(-c3cccc(F)c3)n2)cc1 | 1 (≈ 2.19 µM) | 2 (≈ 4.38 µM) | 2 (≈ 4.38 µM) | 4 (≈ 8.77 µM) | 8 (≈ 17.5 µM) | 4 (≈ 8.77 µM) | 2 (≈ 4.38 µM) | 8 (≈ 17.5 µM) | 1 (≈ 2.19 µM) | 4 (≈ 8.77 µM) |
| O=C(O)c1ccc(-n2cc(CNc3ccc(Oc4ccccc4)cc3)c(-c3cccc(F)c3)n2)cc1 | 2 (≈ 4.17 µM) | 4 (≈ 8.34 µM) | 2 (≈ 4.17 µM) | 4 (≈ 8.34 µM) | 8 (≈ 16.7 µM) | 8 (≈ 16.7 µM) | 4 (≈ 8.34 µM) | 8 (≈ 16.7 µM) | 2 (≈ 4.17 µM) | 4 (≈ 8.34 µM) |
| O=C(O)c1ccc(-n2cc(CNc3cc(Cl)cc(C(F)(F)F)c3)c(-c3cccc(F)c3)n2)cc1 | 1 (≈ 2.04 µM) | 2 (≈ 4.08 µM) | 1 (≈ 2.04 µM) | 1 (≈ 2.04 µM) | 2 (≈ 4.08 µM) | 4 (≈ 8.17 µM) | 2 (≈ 4.08 µM) | 4 (≈ 8.17 µM) | 0.5 (≈ 1.02 µM) | 2 (≈ 4.08 µM) |
